Data: BindingDB's records for doi:10.1021/jm9900016 (Universit&#224, 1999)

Target: Thymidylate synthase (Lactobacillus casei)
Experiment: In vitro inhibition of Lactobacillus casei Thymidylate synthase.

Ki [nM]	SMILES
1900	O=C1OC(c2ccc(O)c(Cl)c2)(c2ccc(O)c(Cl)c2)c2ccccc21 [3,3-Bis-(3-chloro-4-hydroxy-phenyl)-3H-isobenzofuran-1-one]
1500	O=C1OC(c2ccc(O)c(Cl)c2)(c2ccc(O)c(Cl)c2)c2cc3ccccc3cc21 [3,3-Bis-(3-chloro-4-hydroxy-phenyl)-3H-naphtho[2,3-c]furan-1-one]
1500	O=C1OC(c2ccc(O)c(F)c2)(c2ccc(O)c(F)c2)c2cc3ccccc3cc21 [3,3-Bis-(3-fluoro-4-hydroxy-phenyl)-3H-naphtho[2,3-c]furan-1-one]
7000	O=C1OC(c2ccc(O)cc2)(c2ccc(O)cc2)c2cc3ccccc3cc21 [3,3-Bis-(4-hydroxy-phenyl)-3H-naphtho[2,3-c]furan-1-one]
250	O=C1OC(O)(c2ccc(O)c(Cl)c2)c2ccc([N+](=O)[O-])c3cccc1c23 (stereo not drawn) [3-(3-Chloro-4-hydroxy-phenyl)-3-hydroxy-6-nitro-3H-benzo[de]isochromen-1-one]
1500	O=C1OC(c2ccc(O)cc2)(c2ccc(O)c3ccccc23)c2ccccc21 (stereo not drawn) [3-(4-Hydroxy-naphthalen-1-yl)-3-(4-hydroxy-phenyl)-3H-isobenzofuran-1-one]
105000	O=C1OC(O)(c2ccccc2O)c2cccc3cccc1c23 (stereo not drawn) [3-Hydroxy-3-(2-hydroxy-phenyl)-3H-benzo[de]isochromen-1-one]
1500	O=C1OC(c2ccc(O)cc2)(c2ccc(O)cc2)c2ccc3c4c(ccc1c24)CC3 [7,7-Bis-(4-hydroxy-phenyl)-2,7-dihydro-1H-6-oxa-cyclopenta[cd]phenalen-5-one]
